Results as given in patent US20070244190A1, “Neobritannilactone B and acetyl neobritannilactone B” (priority 2006, published 2007).

Assays:
HL-60 cells [1] = test: Apoptosis (sub-G1) by flow cytometry; type: cell-based, human; settings: 24 h, mean ± SE
Procedure: (§1) Cell Culture and Chemicals. The COLO 205 and HT 29 cell lines were isolated from human colon adenocarcinoma (ATCC CCL-222 and HTB-38); human promyelocytic leukemia (HL-60) cells were obtained from American Type Culture Collection (Rockville, Md.). The human AGS gastric carcinoma cell lines (CCRC 60102) were obtained from the Food Industry Research and Development Institute (Hsinchu, Taiwan). Cell lines were grown at 37° C. in 5% CO2 dioxide atmosphere in RPMI for COLO 205, HT-29, and HL-60 cells and DMEM/F12 for AGS cells, all supplemented with 10% heat-inactivated fetal bovine serum (GIBCO BRL, Grand Island, N.Y.) (100 units/mL of penicillin, 100 μg/mL of streptomycin), and 2 mM L-glutamine (GIBCO BRL). Selected compounds were dissolved in dimethyl sulfoxide (DMSO). Propidium iodide was obtained from Sigma Chemical Co. (St. Louis, Mo.).
(§2) Flow Cytometry. Human cancer cells (2×10^5) were cultured in 60-mm Petri dishes and incubated for 24 h. The apoptotic cells (sub-G1) in the selected compounds and treated cells were measured by flow cytometry analysis. Then cells were harvested, washed with PBS, resuspended in 200 μL of PBS, and fixed in 800 μL of iced 100% ethanol at −20° C. After being left to stand overnight, the cell pellets were collected by centrifugation, resuspended in 1 mL of hypotonic buffer (0.5% Triton X-100 in PBS and 0.5 μg/mL RNase), and incubated at 37° C. for 30 min. Then 1 mL of propidium iodide solution (50 μg/mL) was added and the mixture was allowed to stand on ice for 30 min. Fluorescence emitted from the propidium iodide-DNA complex was quantitated after excitation of the fluorescent dye by FACScan cytometry (Becton Dickinson, San Jose, Calif.).
(§3) The compounds isolated from Inula were tested for their effects on the apoptotic ratio in human cancer cells.

COLO 205 cells [2] = test: Apoptosis (sub-G1) by flow cytometry; type: cell-based, human; settings: 24 h, mean ± SE
Procedure: as §1, §2, §3

HT-29 cells [3] = test: Apoptosis (sub-G1) by flow cytometry; type: cell-based, human; settings: 24 h, mean ± SE
Procedure: as §1, §2, §3

AGS cells [4] = test: Apoptosis (sub-G1) by flow cytometry; type: cell-based, human; settings: 24 h, mean ± SE
Procedure: as §1, §2, §3

HL-60 cells [5] = test: Cell viability, trypan blue exclusion, 24 h; type: cell-based; settings: HL-60, 24 h, mean ± SE, n=3, read-out: IC50, growth of human cancer cells
Procedure: as §1
(§4) Determination of Cell Viability. Human cancer cells were treated either with DMSO (0.01%) or the selected compounds (5-100 μM). Cell viability was determined at 24 h based on trypan blue exclusion assay. The viability percentage was calculated based on the percentage of unstained cells. Suspensions of cells were diluted 1:1 with 0.5% trypan blue solution. Stained and unstained cells were counted in a hemocytometer.

COLO 205 cells [6] = test: Cell viability, trypan blue exclusion, 24 h; type: cell-based; settings: COLO 205, 24 h, mean ± SE, n=3, read-out: IC50, growth of human cancer cells
Procedure: as §1, §4

HT-29 cells [7] = test: Cell viability, trypan blue exclusion, 24 h; type: cell-based; settings: HT-29, 24 h, mean ± SE, n=3, read-out: IC50, growth of human cancer cells
Procedure: as §1, §4

AGS cells [8] = test: Cell viability, trypan blue exclusion, 24 h; type: cell-based; settings: mean ± SE, n=3, read-out: IC50, growth of human cancer cells
Procedure: as §1, §4

| Structure (SMILES) | apoptotic ratio (HL-60 cells [1]; HL-60, 5 μM) [%] | apoptotic ratio (HL-60 cells [1]; HL-60, 10 μM) [%] | apoptotic ratio (HL-60 cells [1]; HL-60, 25 μM) [%] | apoptotic ratio (HL-60 cells [1]; HL-60, 50 μM) [%] | apoptotic ratio (HL-60 cells [1]; HL-60, 100 μM) [%] | apoptotic ratio (COLO 205 cells [2]; COLO 205, 5 μM) [%] | apoptotic ratio (COLO 205 cells [2]; COLO 205, 10 μM) [%] | apoptotic ratio (COLO 205 cells [2]; COLO 205, 25 μM) | apoptotic ratio (COLO 205 cells [2]; COLO 205, 50 μM) [%] | apoptotic ratio (COLO 205 cells [2]; COLO 205, 100 μM) [%] | apoptotic ratio (HT-29 cells [3]; HT-29, 5 μM) [%] | apoptotic ratio (HT-29 cells [3]; HT-29, 10 μM) [%] | apoptotic ratio (HT-29 cells [3]; HT-29, 25 μM) [%] | apoptotic ratio (HT-29 cells [3]; HT-29, 50 μM) [%] | apoptotic ratio (HT-29 cells [3]; HT-29, 100 μM) [%] | apoptotic ratio (AGS cells [4]; 5 μM) [%] | apoptotic ratio (AGS cells [4]; 10 μM) [%] | apoptotic ratio (AGS cells [4]; 25 μM) [%] | apoptotic ratio (AGS cells [4]; 50 μM) [%] | apoptotic ratio (AGS cells [4]; 100 μM) [%] | other results |
| --- | --- | --- | --- | --- | --- | --- | --- | --- | --- | --- | --- | --- | --- | --- | --- | --- | --- | --- | --- | --- | --- |
| C=C1C(=O)OC2CC(C)=C(C(C)CCCO)C(OC(=O)C(C)CC)C12 (stereo not drawn) [Compound 1, 6β-O-(2-methylbutyryl)-britannilactone] | 6.41 ± 0.79 | 5.36 ± 0.61 | 10.53 ± 3.34 | 28.60 ± 2.67 | 27.05 ± 0.54 | 5.33 ± 0.78 | 5.86 ± 0.32 | 15.20 ± 1.02% | 27.21 ± 5.51 | 36.24 ± 0.76 | 4.24 ± 0.40 | 3.68 ± 0.47 | 3.93 ± 0.16 | 5.16 ± 0.93 | 6.40 ± 0.28 | 10.89 ± 1.69 | 11.38 ± 1.12 | 17.76 ± 0.76 | 28.48 ± 1.20 | 27.10 ± 0.54 | IC50 (HL-60 cells [5]): 47.1 ± 1.55 µM; IC50 (COLO 205 cells [6]): 58.7 ± 1.32 µM; IC50 (HT-29 cells [7]): 48.1 ± 2.26 µM; IC50 (AGS cells [8]): 31.3 ± 1.8 µM |
| CC(=O)OCCC[C@H](C)C1=C[C@@H]2[C@H](C)C(=O)O[C@@H]2C[C@@]1(C)O [Compound 2, neobritannilactone A] | 6.68 ± 1.51 | 6.31 ± 0.98 | 6.19 ± 0.01 | 6.63 ± 2.21 | 16.31 ± 1.63 | 4.08 ± 0.21 | 6.51 ± 2.28 | 4.28 ± .93% | 5.44 ± 0.47 | 25.50 ± 3.46 | 3.94 ± 1.05 | 4.24 ± 0.24 | 5.17 ± 1.70 | 4.09 ± 0.77 | 7.73 ± 3.22 | 9.23 ± 0.22 | 9.83 ± 2.27 | 10.57 ± 2.11 | 9.41 ± 2.83 | 9.81 ± 2.30 | IC50 (HL-60 cells [5]): 85.8 ± 4.97 µM; IC50 (COLO 205 cells [6]): 97.9 ± 1.16 µM; IC50 (HT-29 cells [7]): > 100 µM; IC50 (AGS cells [8]): > 100 µM |
